Test results reported in publication PMC3927586, “Protein kinase C-delta inactivation inhibits the proliferation and survival of cancer stem cells in culture and in vivo” (BMC Cancer, 2014).

Key:
[1] = mice; cited from earlier work
[2] = system: PCSC; experiment: Clonogenic assay with washout; type: cell-based, human; conditions: rottlerin 10 μM, colonies at 15 days
Description: 100,000 cells were seeded on 100 mm dishes with 10 ml media per dish. On day 4, cells were treated with a PKCδ inhibitor or vehicle control for either 6, 18, 24 or 48 hours. Cells were trypsinized; counted via the trypan blue exclusion method in order to determine the number of live cells in the sample, and 300 live cells were seeded in triplicate onto 6-well plates. Cells were monitored for appropriate colony size and re-fed every three to four days. At Day 15, cells were stained with ethidium bromide and counted using UVP LabWorks software (Waltham, MA).
Figure 2 Effects of PKCδ inhibitors on human cancer stem cells. (A) PCSC and PrCSC cells at 80% confluence were exposed to rottlerin. DMSO served as vehicle control (Vehicle). After 24 and 72 hr of exposure, cell mass was evaluated by MTT assay. Control values were normalized to 100%. p values for comparison between treatments reached significance at 24 hr of exposure (p≤0.01) for both cell types, and remained significant at 72 hr. […] Cytotoxicity was evaluated by LDH-release assay. […] Viable cells were enumerated and re-plated in media without inhibitor, and colony numbers were quantitated 15 days later. p values for comparison of treatment effects on clonogenic capacity reached significance (p=0.005) at 18 hr of exposure and remained significant for all subsequent exposure times. […]

[3] = system: human breast cancer stem cell (BCSC) xenografts; experiment: Breast cancer stem cell xenograft model; type: in vivo, mice; conditions: rottlerin 5,000 μg/kg intraperitoneally, 15 days
Description: These studies were performed with the approval of the Institutional Animal Care and Use Committee of Boston University. Breast cancer stem cells (2 × 10^5) grown from a metastatic tumor were suspended in human breast cancer stem cell complete growth media (Celprogen, San Pedro, CA) and injected subcutaneous into the right flank of female J:NU mice (The Jackson Laboratory, ME) under anesthesia. After palpable tumors developed, the mice were divided into two groups of animals. The control group received daily intraperitoneal injections of vehicle (DMSO) while the treatment group received daily intraperitoneal injections of a PKCδ inhibitor (rottlerin 5,000 μg/kg) for 15 days. The length and width of tumors were measured with a vernier caliper and tumor volumes were calculated. Survival was calculated as the day tumors reached the maximum size allowed by the protocol (2 cm diameter).
Figure 6 Effects of PKCδ inhibitor on tumor growth and survival in a xenograft human breast cancer stem cell model. Breast cancer stem cell xenografts were established and animals were treated with vehicle or rottlerin for 15 days, as described in Methods. (A) Tumor volumes plotted over time, until tumors in all the control animals reached the maximum volume allowed by the protocol (approximately 15 days). […]

[4] = system: normal primary cells or cell lines; conditions: at the concentrations employed herein; cited from earlier work
[5] = system: PrCSC cells; experiment: Cytotoxicity (LDH release) in prostate cancer stem cells; type: cell-based, human; conditions: dose-dependent, 24 and 72 hr
Description: LDH release was assessed by spectrophotometrically measuring the oxidation of NADH in both the cells and media. Cells were seeded in 24-well plates, and exposed to PKCδ inhibitors or vehicle. After different times of exposure, cytotoxicity was quantified by a standard measurement of LDH release with the use of the LDH assay kit (Roche Molecular Biochemicals) according to the manufacturer’s protocol. Briefly, total culture medium was cleared by centrifugation. For assay of released LDH, supernatants were collected. To assess total LDH in cells, Triton X-100 was added to vehicle (control) wells to release intracellular LDH. LDH assay reagent was added to lysates or supernatants and incubated for up to 30 min at room temperature in dark, the reaction was stopped, and the absorbance was measured at 490 nm. The percentage of LDH release was then calculated as the LDH in the supernatants as a fraction of the total LDH.
Figure 2 Effects of PKCδ inhibitors on human cancer stem cells. (A) PCSC and PrCSC cells at 80% confluence were exposed to rottlerin. DMSO served as vehicle control (Vehicle). After 24 and 72 hr of exposure, cell mass was evaluated by MTT assay. Control values were normalized to 100%. p values for comparison between treatments reached significance at 24 hr of exposure (p≤0.01) for both cell types, and remained significant at 72 hr. (B) PCSC and PrCSC cells at 50% confluence were exposed to rottlerin. Cytotoxicity was evaluated by LDH-release assay. […] Viable cells were enumerated and re-plated in media without inhibitor, and colony numbers were quantitated 15 days later. p values for comparison of treatment effects on clonogenic capacity reached significance (p=0.005) at 18 hr of exposure and remained significant for all subsequent exposure times. […] Cytotoxicity was evaluated by LDH-release assay, as in panel B. p values for comparison between treatment effects on LDH release reached significance at 24 hr of exposure to 2.5 μM KAM1 for PCSC cells and at 10 μM for PrCSC (p≤0.01), and remained significant at 72 hr for all concentrations of KAM1. […]

[6] = Drug-like properties: hydrophobicity; type: physicochemical

Structure (SMILES)	tolerability when administered orally or intraperitoneally [1]	decrease of clonogenic capacity of PCSC ([2]; 18 hr exposure then washout) [%]	reduction of clonogenic potential of PCSC ([2]; 48 hr exposure then washout)	survival / tumor-free status after treatment ([3]; monitoring continued after cessation)	effect on growth of BCSC xenografts ([3]; nude (J:NU) mice, vs vehicle)	cytostatic or cytotoxic effect on normal primary cells or cell lines [4]	cytotoxicity in PrCSC (LDH release) [5]	hydrophobicity [6]
CC(=O)c1c(O)c(C)c(O)c(Cc2c(O)c3c(c(C(=O)/C=C/c4ccccc4)c2O)OC(C)(C)C=C3)c1O [rottlerin, Rottlerin, reference compound]	well-tolerated	40	more than 90%	some animals remaining tumor-free even at day 300	effectively inhibited the growth of the xenografts, even producing tumor regression	not cytostatic or cytotoxic	induced cytotoxicity	–
CC1(C)C=Cc2cc(CCn3c4ccccc4c4ccccc43)cc(C=O)c2O1 [BJE6-106, 6-(2-(9H-carbazol-9-yl)ethyl)-2,2-dimethyl-2H-chromene-8-carbaldehyde]	–	–	–	–	–	–	–	highly hydrophobic
